Source: patent US20170248578A1, “ANTI-CANCER AGENT SENSITIVITY-DETERMINING MARKER” (KEIO UNIVERSITY, priority 2014, published 2017)
Several values for one entry are separate records, joined by “and”; a condition that tells them apart may be missing. Identical values can stand only once.

How the values were obtained:
Format in all cases: cell-based, human
[1] = system: HCT116 into which siRNA had been introduced; assay: Sensitivity to oxaliplatin after introduction of siRNA, MTS assay; details: for sensitivity to oxaliplatin compared to the case where the control siRNA had been introduced: HCT116, 150 pmol siRNA per well
Experimental: (§1) The aforementioned nine human colorectal cancer cell lines were respectively inoculated onto a 96 well plate at a density of 1,500 cells/well, and after 24 hours, oxaliplatin was added thereto. The cell survival rate after 48 hours of drug exposure was evaluated by the MTS assay (CellTiter96™ AQueous One Solution Cell Proliferation Assay, Promega), and the IC50 values were determined from the absorbance values. Regarding the drug exposure conditions, eleven conditions such as Control (0 μM), 0.001 μM, 0.01 μM, 0.1 μM, 0.3 μM, 1 μM, 3 μM, 10 μM, 30 μM, 100 μM, and 1,000 μM were used. The evaluation of sensitivity was performed three times with cells of different passage numbers, by measuring three samples each for the respective cell lines, drug exposure time, and drug exposure conditions in a single time test. An analysis was carried out based on the survival rate calculated from the results of the MTS assay.
(§2) Among the nine kinds of colorectal cancer cell lines described in Test Example 1, Ls174T was used as an oxaliplatin-high-sensitivity cell line, HCT116 was used as a moderate-sensitivity cell line, and HT29 and DLD-1 were used as low-sensitivity cell lines.
(§3) Each of the human colorectal cancer cell lines was inoculated into a 6-well plate at a density of 1×10^5 cells/well, and after 24 hours, the medium was replaced with serum-free DMEM medium (Wako, 044-29765). A solution obtained by dissolving 150 pmol per well of each of the siRNAs indicated in Table 8 in 250 μL of Opti MEM (GIBCO, No. 319985) was mixed with a solution obtained by mixing 4.5 μL of Lipofectamin RNAiMAX Reagent (Invitrogen, No. 13778-150) and 250 μL of Opti MEM (GIBCO, No. 319985). The resultant mixture was incubated for 10 to 20 minutes. After incubation, 500 μL each of the mixture was added to each well of the 6-well plate on which the human colorectal cancer cell lines were cultured, and the medium in each well was replaced with a serum-added DMEM medium (Wako, 044-29765) 4 to 6 hours after the addition. The cells were collected 24 hours after the addition of siRNA.
(§4) Regarding the control siRNA, siRNA of No. 4390843 of Life Technologies, Inc. was used.
(§5) Measurement of the sensitivity to oxaliplatin (measurement of IC50 values) of the human colorectal cancer cell lines into which siRNA had been introduced, was performed by the method described in Test Example 1(1)(c).

[2] = system: HT29 into which siRNA had been introduced; assay: as above; details: for sensitivity to oxaliplatin compared to the case where the control siRNA had been introduced: HT29, 150 pmol siRNA per well
Experimental: as §1, §2, §3, §4, §5

[3] = system: DLD-1 into which siRNA had been introduced; assay: as above
Experimental: as §1, §2, §3, §4, §5

[4] = system: Ls174T into which siRNA had been introduced; assay: as above; details: for sensitivity to oxaliplatin compared to the case where the control siRNA had been introduced: 150 pmol siRNA per well
Experimental: as §1, §2, §3, §4, §5

Lovo = assay: Sensitivity to oxaliplatin, MTS assay; details: 48 hours of drug exposure, cell survival rate by MTS assay
Experimental: (§6) Nine human colorectal cancer cell lines (SW480, Ls174T, Lovo, SW620, HCT116, HCT15, HT29, DLD-1, and WiDr) were obtained from the following sources (Table 1).
(§7) Culture was carried out under the conditions of 0100 mm/Tissue Culture Dish (IWAKI), culture medium (D-MEM, 2 mM Glutamine, 10% Fetal Bovine Serum), 37° C., and 5% CO2.
as §1

SW480 = assay: Sensitivity to oxaliplatin, MTS assay; details: SW480, 48 hours of drug exposure, cell survival rate by MTS assay
Experimental: as §6, §7, §1

HCT15 = assay: Sensitivity to oxaliplatin, MTS assay; details: HCT15, 48 hours of drug exposure, cell survival rate by MTS assay
Experimental: as §6, §7, §1

Ls174T = assay: Sensitivity to oxaliplatin, MTS assay; details: 48 hours of drug exposure, cell survival rate by MTS assay
Experimental: as §6, §7, §1

HT29 = assay: Sensitivity to oxaliplatin, MTS assay; details: HT29, 48 hours of drug exposure, cell survival rate by MTS assay
Experimental: as §6, §7, §1

SW620 = assay: Sensitivity to oxaliplatin, MTS assay; details: SW620, 48 hours of drug exposure, cell survival rate by MTS assay
Experimental: as §6, §7, §1

WiDr = assay: Sensitivity to oxaliplatin, MTS assay; details: 48 hours of drug exposure, cell survival rate by MTS assay
Experimental: as §6, §7, §1

HCT116 = assay: Sensitivity to oxaliplatin, MTS assay; details: HCT116, 48 hours of drug exposure, cell survival rate by MTS assay
Experimental: as §6, §7, §1

DLD-1 = assay: Sensitivity to oxaliplatin, MTS assay; details: DLD-1, 48 hours of drug exposure, cell survival rate by MTS assay
Experimental: as §6, §7, §1

For `O=C1[O][Pt]2([NH][C@@H]3CCCC[C@H]3[NH]2)[O]C1=O` [oxaliplatin, (SP-4-2)-[(1R,2R)-cyclohexane-1,2-diamine-κN, κN′] [ethanedio ato(2-)-κO^1, κO^2]platinum], the IC50 ([1]; HCT116, ANXA5 siRNA introduced) was 0.76 µM, the IC50 ([1]; HCT116, C1QBP siRNA introduced) was 2.18 µM and the IC50 ([1]; HCT116, Control siRNA introduced) was 1.72 µM and 1.39 µM and 1.53 µM and 1.34 µM. For the same molecule, the IC50 ([1]; HCT116, PHB siRNA introduced) was 21.5 µM, the IC50 ([1]; HCT116, TALDO siRNA introduced) was 0.73 µM and the IC50 ([2]; HT29, ANXA5 siRNA introduced) was 5.35 µM. It also gave an IC50 ([2]; HT29, Control siRNA introduced) of 16.1 µM, an IC50 ([2]; HT29, PHB siRNA introduced) of 41.9 µM and an IC50 ([2]; HT29, TALDO siRNA introduced) of 2.77 µM. For the same molecule, the IC50 ([3]; DLD-1, Control siRNA introduced) was 14.7 µM, the IC50 ([3]; DLD-1, PHB siRNA introduced) was 52.3 µM and the IC50 ([4]; Control siRNA introduced) was 0.86 µM and 0.68 µM. For the same molecule, the IC50 ([4]; IPYR siRNA introduced) was 0.39 µM, the IC50 ([4]; PHB siRNA introduced) was 11.9 µM and the IC50 ([4]; TALDO siRNA introduced) was 0.43 µM. For the same molecule, the IC50 (Lovo) was 0.79 ± 0.18 µM, the IC50 (SW480) was 0.43 ± 0.13 µM and the IC50 (HCT15) was 1.45 ± 0.44 µM. It also gave an IC50 (Ls174T) of 0.61 ± 0.11 µM, an IC50 (HT29) of 7.99 ± 2.66 µM and an IC50 (SW620) of 1.14 ± 0.74 µM. The IC50 (WiDr) was 17.7 ± 8.39 µM, the IC50 (HCT116) was 1.15 ± 0.34 µM and the IC50 (DLD-1) was 13.9 ± 6.29 µM.
With “ANXA5 siRNA: siRNA GUACAUGACUAUAUCAGGAtt (life technologies, s1392), SEQ ID NO: 2 (GUACAUGACUAUAUCAGGATT; chemistry not given here)” the “sensitivity to oxaliplatin compared to the case where the control siRNA had been introduced” value [1] was “enhanced” and the “sensitivity to oxaliplatin compared to the case where the control siRNA had been introduced” value [2] was “enhanced”.
For “C1QBP siRNA: siRNA GGCCUUAUAUGACCACCUAtt (life technologies, s2139), SEQ ID NO: 4 (GGCCUUAUAUGACCACCUATT; chemistry not given here)”, the “sensitivity to oxaliplatin compared to the case where the control siRNA had been introduced” value [1] was “decreased”.
For “IPYR siRNA: siRNA GGAAUCAGUUGCAUGAAUAtt (life technologies, s10878), SEQ ID NO: 5 (GGAAUCAGUUGCAUGAAUATT; chemistry not given here)”, the “sensitivity to oxaliplatin compared to the case where the control siRNA had been introduced” value [4] was “enhanced”.
In the case of “PHB siRNA: siRNA CGUGGGUACAGAAACCAAUtt (life technologies, s10424), SEQ ID NO: 1 (CGUGGGUACAGAAACCAAUTT; chemistry not given here)”, the “sensitivity to oxaliplatin compared to the case where the control siRNA had been introduced” value [1] is reported as “decreased”, the “sensitivity to oxaliplatin compared to the case where the control siRNA had been introduced” value [2] is reported as “decreased” and the “sensitivity to oxaliplatin compared to the case where the control siRNA had been introduced” value ([3]; DLD-1, 150 pmol siRNA per well) is reported as “decreased”. The “sensitivity to oxaliplatin compared to the case where the control siRNA had been introduced” value [4] was “decreased”.
For “TALDO siRNA: siRNA UGCUAUUGAUAAACUUUUUtt (life technologies, s13776), SEQ ID NO: 3 (UGCUAUUGAUAAACUUUUUTT; chemistry not given here)”, the “sensitivity to oxaliplatin compared to the case where the control siRNA had been introduced” value [1] was “enhanced”, the “sensitivity to oxaliplatin compared to the case where the control siRNA had been introduced” value [2] was “enhanced” and the “sensitivity to oxaliplatin compared to the case where the control siRNA had been introduced” value [4] was “enhanced”.
